Tested on: 454973-116-R2-J3-PDC spheroids, percent test/control viability
Assay: Anticancer human tumor 454973-116-R2-J3-PDC patient-derived pancreatic carcinoma cell line growth inhibition [CLK]
Conditions: spheroids with HUVEC and MSC; for IC50: curve of first compound; for viability, T/C: stronger effect = lower value
Excerpt: A high-throughput screen of multi-cell type tumor spheroids was designed to identify active combinations of […] and targeted small molecules. Complex spheroids include a stromal component modeled by human endothelial cells (HUVEC) and fibroblasts modeled by human mesenchymal stem cells (MSCs). The concentration ranges selected for each drug and investigational agent were based upon clinically achievable concentrations if the clinical Cmax of the agent was known.
Compounds. The drugs and investigational agents: cirtuvivint (SM08502; NSC835563), CC-671 (NSC850746), vemurafenib (NSC761431), tapotoclax (NSC804041), sotorasib (NSC818433), adagrasib (NSC831453), MRTX-1133 (NSC836407), BAY2416964 (NSC825713), copanlisib (NSC816437), inavolisib (NSC800729), abemaciclib (NSC768073), osimertinib (NSC779217), entinostat (NSC756642), eltanexor (KPT-8602, NSC794443), venetoclax (NSC766270), ceralasertib (NSC777638), bortezomib (NSC756655), olaparib (NSC753686), talazoparib (NSC767125), alisertib (NSC759677), peposertib (NSC802822), gemcitabine (NSC613327), 5-fluorouracil (NSC19893), SN-38 (NSC673596), oxaliplatin (NSC266046), paclitaxel (NSC125973), and doxorubicin (NSC123127), were obtained from the National Cancer Institute (NCI) Developmental Therapeutics Program Chemical Repository. The FDA-approved anticancer drug set is available from the Developmental Therapeutics Program at https://dtp.cancer.gov/organization/dscb/obtaining/available plates.htm. […] The stock solutions were prepared in dimethyl sulfoxide (DMSO, Sigma-Aldrich, St. Louis, MO, cat. D2650), except for the platinum complexes which were prepared in saline (Quality Biological, Gaithersburg, MD, cat. 114-055-101), at 800-fold the tested concentration and stored at -70 degrees C prior to their use. All drugs and investigational agents were tested over a range starting from a high concentration at or near the clinical Cmax and decreasing in half-log increments. If the clinical Cmax for an agent had not been determined, the highest concentration tested was 10 microM.
Cell Culture. All cells were maintained in an incubator at 37 degrees C and 5% CO2 with 95% humidity. The PDC lines were cultured according to standard operating procedures established by the NCI PDMR. Briefly, all PDCs were thawed and cultured in Matrigel-coated flasks prepared with a working solution of 1X Ham's F-12 nutrient mix, without supplementation (Invitrogen, Waltham, MA, cat. 11765054), 100 U/mL penicillin-streptomycin (Invitrogen, cat. 15140122), and 2.5% Matrigel (Corning Inc., Corning, NY, cat. 354248) for the first three passages. The 947758-054-R-J2-PDC line was cultured in 6B/Colon 1A media, which includes advanced DMEM/F-12 (Thermo Fisher Scientific, cat. 12634028), 10 mM HEPES (Thermo Fisher Scientific, cat. 15630080), 1X GlutaMAX supplement (Thermo Fisher Scientific, cat. 35050061), 0.1 mg/mL primocin (InvivoGen, cat. ant-pm-2), 10% defined fetal bovine serum, heat inactivated (HyClone Laboratories Inc., cat. SH30070.03HI), 1.25 mM N-Acetyl-L-cysteine (Sigma-Aldrich, cat. A9165), 10 mM nicotinamide (Sigma-Aldrich, cat. N0636), 1X B-27 supplement (Thermo Fisher Scientific, cat. 17504044), 1X N-2 supplement (Thermo Fisher Scientific, cat. 17502048), and 10 microM Y-27632 dihydrochloride (Tocris Bioscience, cat. 1254). The 876862-298-R-J1-PDC was cultured in 6E media, which includes all 6B/Colon 1A media components plus 50% L-WRN conditioned media (ATCC, cat. CRL-3276), 50 ng/mL recombinant human EGF recombinant protein (hEGF; Thermo Fisher Scientific, cat. PHG0311), 10 ng/mL recombinant human fibroblast growth factor 10 (hGFG-10; PeproTech, cat. 100-26), 1 ng/mL recombinant human fibroblast growth factor 2 (hFGF-2; PeproTech, cat. 100-18B), and 1 µM prostaglandin E2 (PGE2; Tocris, cat. 2296). The 227483-062-R1-J1-PDC line was cultured in Panc media, containing all 6E components except hFGF-2, with the addition of 500 nM SB-431542 (Selleckchem, cat. S1067) and 10 nM gastrin (Tocris, cat. 3006). […]
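Note: spheroids exposed to compounds for 7 days before readout.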

Structure (SMILES): C=CC(=O)N1CCN(c2nc(=O)n(-c3c(C)ccnc3C(C)C)c3nc(-c4c(O)cccc4F)c(F)cc23)C(C)C1 (configuration not stated) + CN1CCN(c2cc(C(=O)Nc3cc4cc(-c5cnn(C)c5)ccc4cn3)ccn2)CC1
- IC50 (second compound 0.0316 µM): > 10000 nM
- IC50 (second compound 0.1 µM): > 10000 nM
- IC50 (second compound 0.316 µM): < 31.6 nM
- IC50 (second compound 1 µM): < 31.6 nM
- IC50 (second compound 3.16 µM): < 31.6 nM
- IC50 (second compound 10 µM): < 31.6 nM
- viability, T/C (second compound 0.0316 µM, first compound 0.0316 µM): 97%
- viability, T/C (second compound 0.0316 µM, first compound 0.1 µM): 99.5%
- viability, T/C (second compound 0.0316 µM, first compound 0.316 µM): 103%
- viability, T/C (second compound 0.0316 µM, first compound 1 µM): 110%
- viability, T/C (second compound 0.0316 µM, first compound 3.16 µM): 110%
- viability, T/C (second compound 0.0316 µM, first compound 10 µM): 119%
- viability, T/C (second compound 0.1 µM, first compound 0.0316 µM): 87.6%
- viability, T/C (second compound 0.1 µM, first compound 0.1 µM): 88.4%
- viability, T/C (second compound 0.1 µM, first compound 0.316 µM): 92.6%
- viability, T/C (second compound 0.1 µM, first compound 1 µM): 87.1%
- viability, T/C (second compound 0.1 µM, first compound 3.16 µM): 98.4%
- viability, T/C (second compound 0.1 µM, first compound 10 µM): 54.7%
- viability, T/C (second compound 0.316 µM, first compound 0.0316 µM): 2.25%
- viability, T/C (second compound 0.316 µM, first compound 0.1 µM): 2.21%
- viability, T/C (second compound 0.316 µM, first compound 0.316 µM): 6.18%
- viability, T/C (second compound 0.316 µM, first compound 1 µM): 2.73%
- viability, T/C (second compound 0.316 µM, first compound 3.16 µM): 4.43%
- viability, T/C (second compound 0.316 µM, first compound 10 µM): 2.46%
- viability, T/C (second compound 1 µM, first compound 0.0316 µM): 0.13%
- viability, T/C (second compound 1 µM, first compound 0.1 µM): 1.49%
- viability, T/C (second compound 1 µM, first compound 0.316 µM): 1.16%
- viability, T/C (second compound 1 µM, first compound 1 µM): 0.14%
- viability, T/C (second compound 1 µM, first compound 3.16 µM): 0.16%
- viability, T/C (second compound 1 µM, first compound 10 µM): 1.96%
- viability, T/C (second compound 3.16 µM, first compound 0.0316 µM): 1.3%
- viability, T/C (second compound 3.16 µM, first compound 0.1 µM): 0.21%
- viability, T/C (second compound 3.16 µM, first compound 0.316 µM): 4.08%
- viability, T/C (second compound 3.16 µM, first compound 1 µM): 0.17%
- viability, T/C (second compound 3.16 µM, first compound 3.16 µM): 4.42%
- viability, T/C (second compound 3.16 µM, first compound 10 µM): 1.08%
- viability, T/C (second compound 10 µM, first compound 0.0316 µM): 1.96%
- viability, T/C (second compound 10 µM, first compound 0.1 µM): 0.63%
- viability, T/C (second compound 10 µM, first compound 0.316 µM): 0.4%
- viability, T/C (second compound 10 µM, first compound 1 µM): 0.69%
- viability, T/C (second compound 10 µM, first compound 3.16 µM): 0.61%
- viability, T/C (second compound 10 µM, first compound 10 µM): 0.21%
